Experimental data taken from paper PMC9849758, “Chemically diverse activity-based probes with unexpected inhibitory mechanisms targeting trypsin-like serine proteases” (Frontiers in Chemistry, 2023).

Assays:
Format in all cases: biochemical
[1] = biological target: T1, CatG (Homo sapiens, UniProt P08311); assay: Jump dilution, determination of inhibition type; set-up: Cathepsin G (cathepsin G human neutrophil, Sigma-Aldrich); purchased Sigma-Aldrich; conditions: inhibitor at 10 times IC50, 15 min, diluted 10-fold or 100-fold; Rev./Irrev.
T1 sequence (P08311 21-255): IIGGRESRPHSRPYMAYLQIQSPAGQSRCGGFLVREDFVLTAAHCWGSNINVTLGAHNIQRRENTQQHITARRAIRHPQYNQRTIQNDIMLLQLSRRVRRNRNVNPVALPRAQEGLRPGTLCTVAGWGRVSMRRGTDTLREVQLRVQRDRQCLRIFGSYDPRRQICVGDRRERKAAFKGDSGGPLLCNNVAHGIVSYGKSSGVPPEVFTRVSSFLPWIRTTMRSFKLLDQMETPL
Procedure: The dissociation of the enzyme-inhibitor complex was monitored by substrate hydrolysis over time ([Joossens et al., 2006]).
Because ABPs are designed to be irreversible serine protease inhibitors, the IC50 is exclusively used as a first discriminatory evaluation. When an inhibitor is irreversible, its IC50 value not only depends on the substrate and enzyme concentration but also on the time of incubation with the enzyme before the reaction is started by adding the substrate. […] The progress curve in the presence of an irreversible inhibitor will show final velocities equal to zero (Figure 6C). In contrast, for a reversible inhibitor, progress curves have a non-zero final steady-state velocity (Figure 6A) ([McWhirter, 2021]). To corroborate the inhibitory mechanism of the compounds, jump-dilution assays were performed. These use an inhibitor concentration of 10-fold the IC50 for the incubation, and a posteriori, the reaction mixture is diluted 10-fold or 100-fold before adding the substrate. In the case of an irreversible inhibitor, enzymatic activity is not regained (Figure 6D), whereas, in the case of a reversible compound, a slow release of the inhibitor and a gradual increase of the enzymatic activity rate is observed (Figure 6B) ([Copeland, 2013]; [McWhirter, 2021]). The jump-dilution assays confirmed the behavior described by the progress curves.
2.2.2 Jump dilution results
Supplementary Table 2. Jump dilution of selected alkyne and desthiobiotin probes against a panel of trypsin-like serine proteases. […]
# R R DtBa 3 tryptase Thrombin uPA CatG
32b H Alk Irrev. Irrev. Rev. Irrev. Rev.
45b DtB Irrev. Irrev. Rev. N.D. N.D.
33b Alk Irrev. Irrev. Rev. Irrev. Rev.
46b Cl DtB Irrev. Irrev. Rev. N.D. N.D.
34b H Alk Rev. Rev. Rev. Irrev. Rev.
50b DtB Rev. Rev. Rev. Irrev. Rev.
35b Alk Rev. Rev. Rev. Irrev. Rev.
52b NHCOMe DtB Rev. Rev. Rev. Irrev. Rev.
36b Alk Rev. Rev. Rev. Irrev. Rev.
54b Cl DtB Rev. Rev. Rev. Irrev. Rev.
37b Alk Irrev. Irrev. N.D. Irrev. Irrev.
55b H DtB Irrev. Irrev. N.D. Irrev. Irrev.
38b Alk Irrev. Irrev. N.D. Irrev. Irrev.
56b NHCOMe DtB Irrev. Irrev. N.D. Irrev. Irrev.
39b Alk Irrev. Irrev. N.D. Irrev. Rev.
57b Cl DtB Irrev. Irrev. N.D. Irrev. Rev.
41b H Alk Irrev. Irrev. Irrev. N.D. N.D.
31b Pro-Lys H Alk Irrev. Irrev. Irrev. Irrev. N.D. a Alk: ABP precursor bearing an alkyne; DtB: desthiobiotin probe b Panel of serine proteases abbreviations: urokinase plasminogen activator (uPA), cathepsin G (catG) N.D.: IC50 is greater than 10µM, and jump dilution was not performed
2.2.3 Progress curves and Jump dilution experiments
Kinetic assays were performed in the following manner. The inhibitor was mixed with the substrate, and the buffer solution with the enzyme was added at the time zero. The progress curves show the release of para-nitroaniline (pNA) or 7-amino-4-methyl coumarin (AMC) as a function of time.
To monitor the dissociation of the inhibitor-enzyme, aliquots of the enzyme were incubated at 37 °C without and with the inhibitor at a concentration 10 times higher than its IC 50. The enzyme […]
min, the aliquots were diluted 10-fold or 100-fold into the substrate concentration and assay buffer used for the IC50 determination. The dissociation of the enzyme-inhibitor complex was monitored by substrate hydrolysis over time. Blue lines represent the control where no inhibitor was present. Pink lines represent the assay with inhibitor.

[2] = biological target: T2, uPA (recombinant urokinase plasminogen activator) (Homo sapiens, UniProt P00749); assay: IC50 determination, spectrophotometric protease assay
T2 construct: purchased HYPHEN BioMed
Procedure: (§1) The IC50 values were determined using a spectrophotometric assay. All the experiments were conducted in duplicate. The readout consisted of evaluating the protease-mediated release of the chromophore para-nitroaniline (pNA) or fluorophore 7-amino-4-methyl coumarin (AMC) moieties from the respective substrates. Enzymatic activity was measured for 30 min at 37°C. All compounds were initially screened at three concentrations (10, 1, and .1 μM) to estimate the range of the IC50 value. Those which were able to reduce protease activity by at least 50% at a concentration of 10 μM were submitted to an exact IC50 determination. […] A third independent experiment was performed when the standard deviation of the two independent experiments was higher than […]. IC50 values were obtained by fitting the data with the four-parameter logistics equation using GraphPad Prism 9.
(§2) The conditions for each protease are described as follows, the concentration of substrate used was at the corresponding Km.

[3] = biological target: T3, Thrombin (recombinant thrombin) (Homo sapiens, UniProt P00734); assay: as above
T3 construct: purchased R&D
Procedure: as §1, §2

[4] = biological target: T4, TLCK-treated pancreatic bovine chymotrypsin (Bos taurus, UniProt P00766); assay: as above
T4 construct: TLCK-treated pancreatic bovine chymotrypsin (Sigma-Aldrich); purchased Sigma-Aldrich; host or cells: bovine pancreas
Procedure: as §1, §2

[5] = biological target: T5, β-tryptase (recombinant tryptase β-2) (Homo sapiens, UniProt P20231); assay: as above
T5 construct: purchased EnzoLife Sciences
Procedure: as §1, §2

[6] = biological target: T6, Cathepsin G (cathepsin G human neutrophil) (Homo sapiens, UniProt P08311); assay: as above
T6 construct: Cathepsin G (cathepsin G human neutrophil, Sigma-Aldrich); purchased Sigma-Aldrich; host or cells: human neutrophil
T6 sequence (P08311 21-255): T1 sequence (P08311 21-255)
Procedure: as §1, §2

[7] = biological target: T7, Trypsin-3 (recombinant trypsin-3) (Homo sapiens, UniProt P35030); assay: as above
T7 construct: purchased R&D
T7 sequence (P35030 1-304): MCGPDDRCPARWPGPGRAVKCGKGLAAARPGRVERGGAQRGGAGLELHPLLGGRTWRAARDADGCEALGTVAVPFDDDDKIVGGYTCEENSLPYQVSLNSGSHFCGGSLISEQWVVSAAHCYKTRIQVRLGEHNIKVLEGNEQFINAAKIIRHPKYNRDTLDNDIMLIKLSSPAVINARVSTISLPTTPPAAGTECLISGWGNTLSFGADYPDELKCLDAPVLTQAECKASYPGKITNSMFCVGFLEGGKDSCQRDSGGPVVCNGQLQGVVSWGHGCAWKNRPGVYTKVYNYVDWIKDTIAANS
Procedure: as §1, §2

T5 sequence (P20231 31-275): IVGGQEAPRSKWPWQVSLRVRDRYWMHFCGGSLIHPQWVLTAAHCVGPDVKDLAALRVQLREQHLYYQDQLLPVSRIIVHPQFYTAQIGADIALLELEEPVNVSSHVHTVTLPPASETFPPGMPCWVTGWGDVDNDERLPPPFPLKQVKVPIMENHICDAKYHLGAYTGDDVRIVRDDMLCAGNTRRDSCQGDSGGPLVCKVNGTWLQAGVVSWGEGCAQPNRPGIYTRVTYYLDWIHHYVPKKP

In the case of `C[C@@H]1NC(=O)N[C@@H]1CCCCCC(=O)NCCOCCOCCOCCn1cc(CCCOC(=O)NC(Cc2ccc(NC(=N)N)cc2)P(=O)(Oc2ccc(Cl)cc2)Oc2ccc(Cl)cc2)nn1` (stereo partly shown) [54b], the “CatG jump dilution result” value [1] is reported as “Rev”, the IC50 [2] is reported as 0.006 ± 0.0001 µM and the IC50 [3] is reported as 0.2 ± 0.02 µM. The IC50 [4] was 5.6 ± 1.06 µM, the IC50 [5] was 0.11 ± 0.009 µM and the IC50 [6] was 0.12 ± 0.01 µM. For the same compound, the IC50 [7] was 0.008 ± 0.002 µM.

For `C#CCCCOC(=O)NC(Cc1ccc(NC(=N)N)cc1)P(=O)(Oc1ccc(NC(C)=O)cc1)Oc1ccc(NC(C)=O)cc1` (stereo not shown) [35b], the “CatG jump dilution result” value [1] was “Rev”, the IC50 [2] was 0.005 ± 0.001 µM and the IC50 [3] was 1.11 ± 0.05 µM. For the same compound, the IC50 [4] was > 10 µM, the IC50 [5] was 0.05 ± 0.003 µM and the IC50 [6] was 0.06 ± 0.006 µM. The IC50 [7] was < 0.001 µM.

With `C#CCCCOC(=O)NC(c1ccc(NC(=N)N)cc1)P(=O)(Oc1ccccc1)Oc1ccccc1.O=C(O)C(F)(F)F` (stereo not shown) [37b, Pent-4-yn-1-yl ((diphenoxyphosphoryl)(4-guanidinophenyl)methyl)carbamate trifluoroacetate salt] the “CatG jump dilution result” value [1] was “Irrev”, the IC50 [2] was 1.79 ± 0.003 µM and the IC50 [3] was > 10 µM. For the same compound, the IC50 [4] was > 10 µM, the IC50 [5] was 0.9 ± 0.1 µM and the IC50 [6] was 0.64 ± 0.03 µM. For the same compound, the IC50 [7] was 0.23 ± 0.01 µM.

`C#CCCCOC(=O)NC(CCCNC(=N)N)P(=O)(Oc1ccccc1)Oc1ccccc1` (stereo not shown) [32b] was tested, and the “CatG jump dilution result” value [1] was “Rev”, the IC50 [2] was 4.8 ± 0.08 µM and the IC50 [3] was 0.85 ± 0.13 µM. For the same compound, the IC50 [4] was > 10 µM, the IC50 [5] was 3.74 ± 0.53 µM and the IC50 [6] was 7.57 ± 0.58 µM. It also gave an IC50 [7] of 0.03 ± 0.007 µM.
